According to the supplement of paper PMC13207355:

Legend:
Details in all cases: exposure time: 72 h
[1] = system: FT3469 (normal neural stem cell line); test: phenotypic distance (Euclidean, principal components) from DMSO controls (arbitrary units); higher = stronger morphological change
[2] = system: E34 (patient-derived glioblastoma stem cells of proneural subtype); test: as above
[3] = system: E13 (patient-derived glioblastoma stem cells of classical subtype); test: as above
[4] = system: E28 (patient-derived glioblastoma stem cells of classical subtype); test: as above
[5] = system: E31 (patient-derived glioblastoma stem cells of proneural subtype); test: as above
[6] = system: E57 (patient-derived glioblastoma stem cells of mesenchymal subtype); test: as above
[7] = system: E21 (patient-derived glioblastoma stem cells of mesenchymal subtype); test: as above
[8] = system: FT3469; test: surviving fraction (nuclei count normalised to DMSO); higher = more cells surviving (less toxic)
[9] = system: E34; test: as above
[10] = system: E13; test: as above
[11] = system: E28; test: as above
[12] = system: E31; test: as above
[13] = system: E57; test: as above
[14] = system: E21; test: as above
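Wherever phenotypic distance (Euclidean, principal components) from DMSO controls is given: cell Painting imaging in 384-well plates, CellProfiler features reduced to at least 20 principal components, Euclidean distance versus same-plate DMSO vehicle wells (0.1% v/v), median over six images per well.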
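Wherever surviving fraction (nuclei count normalised to DMSO) is given: nuclei counted by high-content imaging of Hoechst-stained cells in laminin-coated 384-well plates, relative to 0.1% DMSO vehicle wells, with staurosporine as cell-death control.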

`CCn1cc(C(=O)O)c(=O)c2cc(F)c(N3CCNCC3)nc21` [Enoxacin] was tested, and the phenotypic distance ([1]; 4.1 nM) was 0.513, the phenotypic distance ([1]; 12.3 nM) was 0.577 and the phenotypic distance ([1]; 37 nM) was 0.677. The phenotypic distance ([1]; 111.1 nM) was 0.87, the phenotypic distance ([1]; 333.3 nM) was 0.641 and the phenotypic distance ([1]; 1000 nM) was 0.47. It also gave a phenotypic distance ([1]; 3000 nM) of 0.868, a phenotypic distance ([2]; 4.1 nM) of 0.518 and a phenotypic distance ([2]; 12.3 nM) of 0.658. For the same molecule, the phenotypic distance ([2]; 37 nM) was 0.667, the phenotypic distance ([2]; 111.1 nM) was 0.731 and the phenotypic distance ([2]; 333.3 nM) was 0.276. It also gave a phenotypic distance ([2]; 1000 nM) of 0.843, a phenotypic distance ([2]; 3000 nM) of 1.19 and a phenotypic distance ([3]; 4.1 nM) of 0.646. The phenotypic distance ([3]; 12.3 nM) was 0.69, the phenotypic distance ([3]; 37 nM) was 0.539 and the phenotypic distance ([3]; 111.1 nM) was 0.399. It also gave a phenotypic distance ([3]; 333.3 nM) of 0.457, a phenotypic distance ([3]; 1000 nM) of 0.745 and a phenotypic distance ([3]; 3000 nM) of 0.954. The phenotypic distance ([4]; 4.1 nM) was 0.627, the phenotypic distance ([4]; 12.3 nM) was 0.793 and the phenotypic distance ([4]; 37 nM) was 0.478. For the same molecule, the phenotypic distance ([4]; 111.1 nM) was 0.94, the phenotypic distance ([4]; 333.3 nM) was 0.292 and the phenotypic distance ([4]; 1000 nM) was 0.666. For the same molecule, the phenotypic distance ([4]; 3000 nM) was 0.546, the phenotypic distance ([5]; 4.1 nM) was 0.556 and the phenotypic distance ([5]; 12.3 nM) was 0.523. The phenotypic distance ([5]; 37 nM) was 0.553, the phenotypic distance ([5]; 111.1 nM) was 0.528 and the phenotypic distance ([5]; 333.3 nM) was 0.401. The phenotypic distance ([5]; 1000 nM) was 0.654, the phenotypic distance ([5]; 3000 nM) was 0.714 and the phenotypic distance ([6]; 4.1 nM) was 0.422. For the same molecule, the phenotypic distance ([6]; 12.3 nM) was 0.677, the phenotypic distance ([6]; 37 nM) was 0.541 and the phenotypic distance ([6]; 111.1 nM) was 0.821. It also gave a phenotypic distance ([6]; 333.3 nM) of 0.482, a phenotypic distance ([6]; 1000 nM) of 0.537 and a phenotypic distance ([6]; 3000 nM) of 0.807. It also gave a phenotypic distance ([7]; 4.1 nM) of 0.648, a phenotypic distance ([7]; 12.3 nM) of 0.762 and a phenotypic distance ([7]; 37 nM) of 0.7. It also gave a phenotypic distance ([7]; 111.1 nM) of 0.554, a phenotypic distance ([7]; 333.3 nM) of 0.603 and a phenotypic distance ([7]; 1000 nM) of 0.823. The phenotypic distance ([7]; 3000 nM) was 0.597, the surviving fraction ([8]; 4.1 nM) was 0.928 and the surviving fraction ([8]; 12.3 nM) was 0.931. For the same molecule, the surviving fraction ([8]; 37 nM) was 0.867, the surviving fraction ([8]; 111.1 nM) was 1.02 and the surviving fraction ([8]; 333.3 nM) was 1.06. It also gave a surviving fraction ([8]; 1000 nM) of 0.928, a surviving fraction ([8]; 3000 nM) of 0.971 and a surviving fraction ([9]; 4.1 nM) of 1.01. For the same molecule, the surviving fraction ([9]; 12.3 nM) was 1.07, the surviving fraction ([9]; 37 nM) was 1.09 and the surviving fraction ([9]; 111.1 nM) was 0.99. The surviving fraction ([9]; 333.3 nM) was 1.06, the surviving fraction ([9]; 1000 nM) was 1.1 and the surviving fraction ([9]; 3000 nM) was 0.885. The surviving fraction ([10]; 4.1 nM) was 0.98, the surviving fraction ([10]; 12.3 nM) was 1.08 and the surviving fraction ([10]; 37 nM) was 0.82. The surviving fraction ([10]; 111.1 nM) was 1.01, the surviving fraction ([10]; 333.3 nM) was 0.975 and the surviving fraction ([10]; 1000 nM) was 0.96. For the same molecule, the surviving fraction ([10]; 3000 nM) was 1.05, the surviving fraction ([11]; 4.1 nM) was 0.921 and the surviving fraction ([11]; 12.3 nM) was 1.01. For the same molecule, the surviving fraction ([11]; 37 nM) was 0.969, the surviving fraction ([11]; 111.1 nM) was 1.22 and the surviving fraction ([11]; 333.3 nM) was 0.982. For the same molecule, the surviving fraction ([11]; 1000 nM) was 0.962, the surviving fraction ([11]; 3000 nM) was 0.83 and the surviving fraction ([12]; 4.1 nM) was 0.836. For the same molecule, the surviving fraction ([12]; 12.3 nM) was 1, the surviving fraction ([12]; 37 nM) was 1.09 and the surviving fraction ([12]; 111.1 nM) was 0.95. For the same molecule, the surviving fraction ([12]; 333.3 nM) was 1.02, the surviving fraction ([12]; 1000 nM) was 1.19 and the surviving fraction ([12]; 3000 nM) was 0.881. It also gave a surviving fraction ([13]; 4.1 nM) of 1, a surviving fraction ([13]; 12.3 nM) of 1.07 and a surviving fraction ([13]; 37 nM) of 1.1. The surviving fraction ([13]; 111.1 nM) was 1.11, the surviving fraction ([13]; 333.3 nM) was 1.06 and the surviving fraction ([13]; 1000 nM) was 0.938. It also gave a surviving fraction ([13]; 3000 nM) of 0.959, a surviving fraction ([14]; 4.1 nM) of 0.976 and a surviving fraction ([14]; 12.3 nM) of 0.98. For the same molecule, the surviving fraction ([14]; 37 nM) was 0.929, the surviving fraction ([14]; 111.1 nM) was 0.973 and the surviving fraction ([14]; 333.3 nM) was 0.975. For the same molecule, the surviving fraction ([14]; 1000 nM) was 0.987 and the surviving fraction ([14]; 3000 nM) was 0.968.
`CC(C)C[C@H](NC(=O)[C@H](Cc1ccccc1)NC(=O)c1cnccn1)B(O)O` [Bortezomib] showed a phenotypic distance ([1]; 4.11523 nM) of 5.9, a phenotypic distance ([1]; 12.34567901 nM) of 7.61 and a phenotypic distance ([1]; 37.037 nM) of 8.16. The phenotypic distance ([1]; 111.1111111 nM) was 8, the phenotypic distance ([1]; 333.333 nM) was 7.22 and the phenotypic distance ([1]; 1000 nM) was 8.26. For the same molecule, the phenotypic distance ([1]; 3000 nM) was 6, the phenotypic distance ([2]; 4.11523 nM) was 10.2 and the phenotypic distance ([2]; 12.34567901 nM) was 9.58. For the same molecule, the phenotypic distance ([2]; 37.037 nM) was 13.4, the phenotypic distance ([2]; 111.1111111 nM) was 13.5 and the phenotypic distance ([2]; 333.333 nM) was 13.9. For the same molecule, the phenotypic distance ([2]; 1000 nM) was 12.6, the phenotypic distance ([2]; 3000 nM) was 12.6 and the phenotypic distance ([3]; 4.11523 nM) was 16.9. It also gave a phenotypic distance ([3]; 12.34567901 nM) of 2.3, a phenotypic distance ([3]; 37.037 nM) of 17.1 and a phenotypic distance ([3]; 111.1111111 nM) of 12. For the same molecule, the phenotypic distance ([3]; 333.333 nM) was 14.2, the phenotypic distance ([3]; 1000 nM) was 13.5 and the phenotypic distance ([3]; 3000 nM) was 21.9. It also gave a phenotypic distance ([4]; 4.11523 nM) of 5.69, a phenotypic distance ([4]; 12.34567901 nM) of 4.88 and a phenotypic distance ([4]; 37.037 nM) of 6.77. The phenotypic distance ([4]; 111.1111111 nM) was 5.66, the phenotypic distance ([4]; 333.333 nM) was 5.33 and the phenotypic distance ([4]; 1000 nM) was 6.17. For the same molecule, the phenotypic distance ([4]; 3000 nM) was 5.47, the phenotypic distance ([5]; 4.11523 nM) was 8.53 and the phenotypic distance ([5]; 12.34567901 nM) was 10.1. The phenotypic distance ([5]; 37.037 nM) was 10.2, the phenotypic distance ([5]; 111.1111111 nM) was 21.4 and the phenotypic distance ([5]; 333.333 nM) was 11.7. It also gave a phenotypic distance ([5]; 1000 nM) of 17.1, a phenotypic distance ([5]; 3000 nM) of 12.6 and a phenotypic distance ([6]; 4.11523 nM) of 10.4. For the same molecule, the phenotypic distance ([6]; 12.34567901 nM) was 15.6, the phenotypic distance ([6]; 37.037 nM) was 11.2 and the phenotypic distance ([6]; 111.1111111 nM) was 10.8. It also gave a phenotypic distance ([6]; 333.333 nM) of 12.5, a phenotypic distance ([6]; 1000 nM) of 12.2 and a phenotypic distance ([6]; 3000 nM) of 9.88. It also gave a phenotypic distance ([7]; 4.11523 nM) of 10.7, a phenotypic distance ([7]; 12.34567901 nM) of 17.6 and a phenotypic distance ([7]; 37.037 nM) of 18.1. It also gave a phenotypic distance ([7]; 111.1111111 nM) of 23.9, a phenotypic distance ([7]; 333.333 nM) of 14.3 and a phenotypic distance ([7]; 1000 nM) of 18.7. The phenotypic distance ([7]; 3000 nM) was 23.7, the surviving fraction ([8]; 4.11523 nM) was 0.207 and the surviving fraction ([8]; 12.34567901 nM) was 0.193. The surviving fraction ([8]; 37.037 nM) was 0.233, the surviving fraction ([8]; 111.1111111 nM) was 0.161 and the surviving fraction ([8]; 333.333 nM) was 0.158. It also gave a surviving fraction ([8]; 1000 nM) of 0.121, a surviving fraction ([8]; 3000 nM) of 0.104 and a surviving fraction ([9]; 4.11523 nM) of 0.0594. The surviving fraction ([9]; 12.34567901 nM) was 0.0507, the surviving fraction ([9]; 37.037 nM) was 0.0385 and the surviving fraction ([9]; 111.1111111 nM) was 0.0332. For the same molecule, the surviving fraction ([9]; 333.333 nM) was 0.035, the surviving fraction ([9]; 1000 nM) was 0.0227 and the surviving fraction ([9]; 3000 nM) was 0.0385. The surviving fraction ([10]; 4.11523 nM) was 0.00185, the surviving fraction ([10]; 12.34567901 nM) was 0.551 and the surviving fraction ([10]; 37.037 nM) was 0.000925. The surviving fraction ([10]; 111.1111111 nM) was 0.0074, the surviving fraction ([10]; 333.333 nM) was 0.000925 and the surviving fraction ([10]; 1000 nM) was 0.00185. For the same molecule, the surviving fraction ([10]; 3000 nM) was 0, the surviving fraction ([11]; 4.11523 nM) was 0.0619 and the surviving fraction ([11]; 12.34567901 nM) was 0.0854. For the same molecule, the surviving fraction ([11]; 37.037 nM) was 0.0576, the surviving fraction ([11]; 111.1111111 nM) was 0.0896 and the surviving fraction ([11]; 333.333 nM) was 0.0747. For the same molecule, the surviving fraction ([11]; 1000 nM) was 0.0576, the surviving fraction ([11]; 3000 nM) was 0.105 and the surviving fraction ([12]; 4.11523 nM) was 0.00325. For the same molecule, the surviving fraction ([12]; 12.34567901 nM) was 0.0114, the surviving fraction ([12]; 37.037 nM) was 0.00651 and the surviving fraction ([12]; 111.1111111 nM) was 0. It also gave a surviving fraction ([12]; 333.333 nM) of 0.00163, a surviving fraction ([12]; 1000 nM) of 0 and a surviving fraction ([12]; 3000 nM) of 0.00163. It also gave a surviving fraction ([13]; 4.11523 nM) of 0.00967, a surviving fraction ([13]; 12.34567901 nM) of 0.00153 and a surviving fraction ([13]; 37.037 nM) of 0.00662. For the same molecule, the surviving fraction ([13]; 111.1111111 nM) was 0.00611, the surviving fraction ([13]; 333.333 nM) was 0.00255 and the surviving fraction ([13]; 1000 nM) was 0.00305. It also gave a surviving fraction ([13]; 3000 nM) of 0.00611, a surviving fraction ([14]; 4.11523 nM) of 0.00595 and a surviving fraction ([14]; 12.34567901 nM) of 0.00198. For the same molecule, the surviving fraction ([14]; 37.037 nM) was 0.000991, the surviving fraction ([14]; 111.1111111 nM) was 0.000991 and the surviving fraction ([14]; 333.333 nM) was 0.00297. The surviving fraction ([14]; 1000 nM) was 0.00198 and the surviving fraction ([14]; 3000 nM) was 0.
